From US8197860B2, “Method for enhancing nutrient absorption with astragalosides” (Nuliv Holding Inc., priority 2005, dated 2012)

Experiments:
Assay type in all cases: cell-based, human
[1] = system: Caco2 cells; test: Glucose uptake assay; design: key to * (regulatory effect on glucose uptake): ↑: the arrows that point up represent the enhancing effect on the glucose uptake; settings: for Regulatory effects on the glucose uptake of the Caco2 cells: Table 2 summary; for Uptake rate (glucose): 48 hours, 25 mM glucose
Protocol: (§1) To evaluate the effect of the isolated astragaloside compound on the uptake of nutrient substances across the intestinal lumen, Caco-2 cells were grown on permeable filter as an experimental model. Caco2 cells originate from human colonic adenocarcinoma and spontaneously differentiate into an enterocyte-like phenotype after two weeks. The Caco-2 cell line, derived from a human colorectal carcinoma, has been used as an in vitro model system for studying drug absorption in gastrointestinal tract. These cells form monolayers with well-developed tight-junctions, and have been evaluated in details as an in vitro model to study both transcellular transport of nutrients and drugs in intestinal lumen.
(§2) Caco-2 cells were obtained from the ATCC (American Type Culture Collection). The cells were maintained in Dulbecco's modified Eagle medium (DMEM) containing 4.5 g/L glucose and 25 mM Hepes, supplemented with 10% fetal calf serum, 100 U/mL penicillin G and […]. The medium was changed every second day. The cells were routinely checked for Mycoplasma in monthly intervals. Caco-2 cells were cultured on semi-permeable membranes to differentiate into a highly functionalized epithelial barrier with remarkable morphological and biochemical similarity to the small intestinal columnar epithelium. The Caco-2 cell monolayers could therefore be used to study the membrane transport properties of many compounds. To trypsinize the cells, the culture dish was washed once with phosphate-buffered saline (PBS) followed by adding trypsine-EDTA for 10 minutes. The trypsinized cells were separated and filtered into single cells using a 35-μm strainer cap (Falcon 2235) before being seeded for further experiments.
(§3) Caco-2 cells (5×10^4) were seeded in a 48-well plate and maintained in culture medium (DMEM with 10% FBS, 1% nonessential amino acids, L-glutamine, penicillin G (100 U/mL), streptomycin (10 μg/mL), and amphotericin B (2.5 μg/mL) in a 37° C. incubator for 10 days for the cells to differentiate. The culture medium was changed once every two days. The cells were then washed with PBS before replenishing with the culture medium containing 5% FBS and various astragalosides at the indicated concentrations (0.01, 0.1 and 1 μM) for 48 hours. The Caco2 cells were washed out of remaining glucose with PBS and replaced in the glucose buffer (80 mM NaCl, 100 mM mannitol, 20 mM Tris-HCl, pH 7.4, 3 mM K2HPO4, 1 mM CaCl2, 1 mg/mL BSA) for 1 hour. Glucose uptake was initiated by replacing the glucose buffer with 0.2 ml of glucose buffer containing 2 μCi/mL of ^14C-glucose and unlabeled cold glucose to give a final glucose concentration of 25 mM. Glucose uptake was stopped by removing the glucose buffer and washing with PBS at designated time intervals. The cells were lysed in 0.2 mL of 0.2 N NaOH, and 20 μL of the cell lysate were transferred to the filter-bottomed UniFilter plates (Perkin-Elmer, Wellesley, Mass., USA) and dried in a vacuum oven at 37° C. The bottom of the UniFilter plate was sealed and 25 μL of the counting solution were added into each well. Adhesive plate sealers were used in place of the lids and radioactivity of each sample was counted using the microplate liquid scintillation counter (TopCount, Packard NXT, Packard BioScience Company, Meriden, Conn., USA). The amount of glucose accumulated in the cells was calculated and normalized to protein concentration, and uptake rate was expressed as nanomoles of glucose per minutes per milligram of cell protein (nmol/min/mg). Protein concentration was determined by a standard Bicinchoninic acid (BCA) protein assay. Nonspecific glucose uptake was measured by adding 2 μCi of L-[^14C]-glucose and subtracting from each determination to obtain specific glucose uptake.

[2] = system: Caco2 cells; test: Folate uptake assay; design: key to * (regulatory effect on folate uptake): ↑: the arrows that point up represent the enhancing effect on folate uptake; settings: for * (regulatory effect on folate uptake) / Percentage (folate uptake vs own control) / Uptake rate (folate): compound 0.1 μM; for Uptake rate (folate): 2 days, 5 μM folate, pH 6.0
Protocol: as §1, §2, §3
The Caco2 cells were subjected to folate uptake test in a manner similar to that described in the glucose uptake assay in Example 1 above. […]

[3] = system: Caco-2 cell monolayer; test: Arginine absorption assay (transport across Caco-2 cell monolayer); design: key to * (regulatory effect on arginine transport): ↑: the arrows that point up represent the enhancing effect on the arginine transport; settings: for Regulatory effects on the arginine transport across the Caco2 cell monolayer: Table 3 summary; for Transport rate (arginine): 10 mM L-arginine apical
Protocol: as §1, §2
(§4) In measuring transport of arginine across the Caco-2 cell monolayer, both sides of the transwells were washed with arginine incubation buffer consisting of: 137 mM NaCl, 10 mM Hepes, 0.3 mM NaH2PO4, 0.3 mM K2HPO4, 5.4 mM KCl, 2.8 mM CaCl2, 1 mM MgSO4, 10 mM glucose, adjusted to pH 7.4. Then, the cell layer was preincubated in the incubation buffer at 37° C. for 1 h. The volume of incubation buffer was 0.2 mL and 0.9 mL in the apical and basolateral chambers, respectively. The cells were replaced with fresh incubation medium in both chambers prior to the transport experiment. The transport experiment was initiated by replacing the incubation solution on the apical side with solution containing 10 mM of L-arginine in which 0.125 μCi/mL of L-[^3H]-arginine was included. At designated time intervals, 10 μL-solution samples were removed from the basolateral side and radioactivity of each sample was counted using a microplate liquid scintillation counter (TopCount, Packard NXT). During the experiment, when a 10 μL-solution sample was removed from the basolateral side every time, 10 μL buffer was supplemented to keep the volume constant. The uptake of [^3H]-mannitol was used to correct for nonspecific transport of molecules across the monolayer membrane. Results were expressed as the nanomoles of arginine transport across the Caco-2 cell monolayers with respect to time in minutes (nmol/min).

[4] = system: Caco-2 cell monolayer; test: Tryptophan absorption assay (transport across Caco-2 cell monolayer); design: key to * (regulatory effect on tryptophan transport): ↑: the arrows that point up represent the enhancing effect on the tryptophan transport; settings: for Regulatory effects on the tryptophan transport across the Caco2 cell monolayer: Table 4 summary
Protocol: as §1, §2, §4
The experimental procedures similar to those in Example 2 were used for measuring the uptake of tryptophan molecules across the Caco-2 membrane, except using a tryptophan incubation buffer consisting of 137 mM choline chloride, 10 mM Hepes, 0.6 mM KH2PO4, 5.4 mM KCl, 2.8 mM CaCl2, 1 mM MgSO4, and 10 mM glucose, and having its pH adjusted to 7.4. Results were expressed as the nanomoles of tryptophan transport across the Caco-2 cell monolayers with respect to time in minutes (nmol/min).

| Compound | Regulatory effects on the glucose uptake of the Caco2 cells [1] | * (regulatory effect on glucose uptake) ([1]; compound 0.01 μM) | Percentage (glucose uptake, control = 100) ([1]; compound 0.01 μM) | Uptake rate (glucose) ([1]; compound 0.01 μM) | * (regulatory effect on glucose uptake) ([1]; compound 0.1 μM) | Percentage (glucose uptake, control = 100) ([1]; compound 0.1 μM) | Uptake rate (glucose) ([1]; compound 0.1 μM) | Percentage (glucose uptake, control = 100) ([1]; compound 1 μM) | Uptake rate (glucose) ([1]; compound 1 μM) | * (regulatory effect on folate uptake) [2] | Percentage (folate uptake vs own control) [2] | Uptake rate (folate) [2] | Regulatory effects on the arginine transport across the Caco2 cell monolayer [3] | * (regulatory effect on arginine transport) ([3]; compound 0.01 μM) | Percentage (arginine transport, control = 100) ([3]; compound 0.01 μM) | Transport rate (arginine) ([3]; compound 0.01 μM) | * (regulatory effect on arginine transport) ([3]; compound 0.1 μM) | Percentage (arginine transport, control = 100) ([3]; compound 0.1 μM) | Transport rate (arginine) ([3]; compound 0.1 μM) | Regulatory effects on the tryptophan transport across the Caco2 cell monolayer [4] | also measured |
| --- | --- | --- | --- | --- | --- | --- | --- | --- | --- | --- | --- | --- | --- | --- | --- | --- | --- | --- | --- | --- | --- |
| CC(C)(O)C1CC[C@](C)(C2[C@@H](O)C[C@@]3(C)C4C[C@H](OC5OC(CO)C(O)C(O)C5O)C5C(C)(C)[C@@H](O)CCC56CC46CC[C@]23C)O1 (stereo partly drawn) [AA, cycloastragenol 6-O-β-D-gluco-pyranose] | had regulatory effects on the glucose uptake | ↑ | 179.69% | 11.450 ± 3.2760 nmol/mg/min | ↑ | 146.67% | 9.3460 ± 2.3210 nmol/mg/min | 145.68% | 9.2830 ± 2.1150 nmol/mg/min | ↑ | 158.52% | 84.030 ± 4.9410 pmol/mg/min | had regulatory effects on the arginine transport | ↑ | 199.66% | 21.3347 ± 1.7800 nmol/min | ↑ | 170.48% | 18.2169 ± 1.8700 nmol/min | had regulatory effects on the tryptophan transport | * (regulatory effect on glucose uptake) ([1]; compound 1 μM): ↑; * (regulatory effect on arginine transport) ([3]; compound 1 μM): ↑; Percentage (arginine transport, control = 100) ([3]; compound 1 μM): 162.06%; Transport rate (arginine) ([3]; compound 1 μM): 17.3164 ± 1.6150 nmol/min; Arginine transport rate ([3]; concentration from 0.01 μM to 1 μM): increased; * (regulatory effect on tryptophan transport) ([4]; compound 0.01 μM): ↑; Percentage (tryptophan transport, control = 100) ([4]; compound 0.01 μM): 133.08%; Transport rate (tryptophan) ([4]; compound 0.01 μM): 11.900 ± 0.6231 nmol/min; * (regulatory effect on tryptophan transport) ([4]; compound 0.1 μM): ↑; Percentage (tryptophan transport, control = 100) ([4]; compound 0.1 μM): 156.56%; Transport rate (tryptophan) ([4]; compound 0.1 μM): 14.000 ± 0.6445 nmol/min; * (regulatory effect on tryptophan transport) ([4]; compound 1 μM): ↑; Percentage (tryptophan transport, control = 100) ([4]; compound 1 μM): 135.32%; Transport rate (tryptophan) ([4]; compound 1 μM): 12.100 ± 0.5197 nmol/min; Tryptophan transport rate ([4]; concentration from 0.01 μM to 1 mM): increased |
| CC(=O)OC1C(O)COC(OC2CCC34CC35CCC3(C)C(C6(C)CCC(C(C)(C)O)O6)C(O)CC3(C)C5CC(OC3OC(CO)C(O)C(O)C3O)C4C2(C)C)C1OC(C)=O (stereo not shown) [AS1, astragaloside I] | had regulatory effects on the glucose uptake | ↑ | 146.75% | 9.3510 ± 1.1370 nmol/mg/min | ↑ | 122.82% | 7.8260 ± 1.7510 nmol/mg/min | 98.52% | 6.2780 ± 1.9930 nmol/mg/min | ↑ | 150.00% | 79.710 ± 3.0410 pmol/mg/min | had regulatory effects on the arginine transport | ↑ | 151.91% | 16.2324 ± 0.7215 nmol/min | ↑ | 147.21% | 15.7300 ± 1.1250 nmol/min | had regulatory effects on the tryptophan transport | Folate uptake versus control group ([2]; 0.1 μM, FIG. 4): increased folate uptake; * (regulatory effect on arginine transport) ([3]; compound 0.001 μM): ↑; Percentage (arginine transport, control = 100) ([3]; compound 0.001 μM): 133.37%; Transport rate (arginine) ([3]; compound 0.001 μM): 14.2554 ± 0.5851 nmol/min; Arginine transport rate ([3]; concentration from 0.001 μM to 0.1 μM): increased; * (regulatory effect on tryptophan transport) ([4]; compound 0.01 μM): ↑; Percentage (tryptophan transport, control = 100) ([4]; compound 0.01 μM): 248.49%; Transport rate (tryptophan) ([4]; compound 0.01 μM): 22.220 ± 0.8695 nmol/min; * (regulatory effect on tryptophan transport) ([4]; compound 0.1 μM): ↑; Percentage (tryptophan transport, control = 100) ([4]; compound 0.1 μM): 258.67%; Transport rate (tryptophan) ([4]; compound 0.1 μM): 23.130 ± 1.3120 nmol/min; * (regulatory effect on tryptophan transport) ([4]; compound 1 μM): ↑; Percentage (tryptophan transport, control = 100) ([4]; compound 1 μM): 178.93%; Transport rate (tryptophan) ([4]; compound 1 μM): 16.000 ± 1.3190 nmol/min; Tryptophan transport rate ([4]; concentration from 0.01 μM to 0.1 mM): increased |
